Reference: ChEMBL document CHEMBL3112517, “Identification of dihydrostilbenes in Pholidota chinensis as a new scaffold for GABAA receptor modulators” (Bioorg Med Chem, 2014)

What was measured:
Type in all cases: cell-based
[1] = Modulation of GABAA alpha5beta2gamma2S receptor (unknown origin) expressed in Xenopus laevis oocytes assessed as potentiation of EC3 to 10 GABA-induced chloride ion current at holding potential -70 mV by two-microelectrode voltage clamp assay; settings: Homo sapiens
[2] = target: T1, GABA-A receptor; alpha-1/beta-3/gamma-2 (Homo sapiens, UniProt P14867+P18507+P28472); experiment: Modulation of GABAA alpha1beta3gamma2S receptor (unknown origin) expressed in Xenopus laevis oocytes assessed as potentiation of EC3 to 10 GABA-induced chloride ion current at holding potential -70 mV by two-microelectrode voltage clamp assay
T1 sequence (P14867 whole entry): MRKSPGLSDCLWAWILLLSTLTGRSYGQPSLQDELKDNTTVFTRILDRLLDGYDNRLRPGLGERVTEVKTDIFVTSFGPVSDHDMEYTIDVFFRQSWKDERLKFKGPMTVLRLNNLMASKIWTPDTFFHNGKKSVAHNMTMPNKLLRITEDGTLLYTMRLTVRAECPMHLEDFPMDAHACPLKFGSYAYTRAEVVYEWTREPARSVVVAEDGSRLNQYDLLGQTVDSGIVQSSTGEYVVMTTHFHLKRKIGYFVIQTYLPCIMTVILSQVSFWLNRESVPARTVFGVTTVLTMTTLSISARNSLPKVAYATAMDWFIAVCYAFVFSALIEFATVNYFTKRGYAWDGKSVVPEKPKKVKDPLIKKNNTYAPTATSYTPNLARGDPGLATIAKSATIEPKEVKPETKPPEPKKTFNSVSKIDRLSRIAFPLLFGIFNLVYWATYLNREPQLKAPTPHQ
T1 sequence (P18507 whole entry): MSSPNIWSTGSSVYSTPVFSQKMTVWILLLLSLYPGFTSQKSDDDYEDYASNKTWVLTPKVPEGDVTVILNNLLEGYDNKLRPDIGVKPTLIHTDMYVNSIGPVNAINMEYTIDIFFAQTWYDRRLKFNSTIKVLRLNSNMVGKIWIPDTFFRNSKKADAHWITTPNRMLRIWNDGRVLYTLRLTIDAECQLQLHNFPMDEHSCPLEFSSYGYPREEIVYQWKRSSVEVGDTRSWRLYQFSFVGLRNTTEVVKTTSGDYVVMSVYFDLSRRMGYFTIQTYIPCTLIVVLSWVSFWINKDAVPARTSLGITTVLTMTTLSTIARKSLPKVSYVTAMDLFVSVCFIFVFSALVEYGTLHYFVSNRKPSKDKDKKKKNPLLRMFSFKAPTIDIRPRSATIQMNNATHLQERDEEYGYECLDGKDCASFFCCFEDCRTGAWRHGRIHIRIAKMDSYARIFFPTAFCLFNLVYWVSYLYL
T1 sequence (P28472 whole entry): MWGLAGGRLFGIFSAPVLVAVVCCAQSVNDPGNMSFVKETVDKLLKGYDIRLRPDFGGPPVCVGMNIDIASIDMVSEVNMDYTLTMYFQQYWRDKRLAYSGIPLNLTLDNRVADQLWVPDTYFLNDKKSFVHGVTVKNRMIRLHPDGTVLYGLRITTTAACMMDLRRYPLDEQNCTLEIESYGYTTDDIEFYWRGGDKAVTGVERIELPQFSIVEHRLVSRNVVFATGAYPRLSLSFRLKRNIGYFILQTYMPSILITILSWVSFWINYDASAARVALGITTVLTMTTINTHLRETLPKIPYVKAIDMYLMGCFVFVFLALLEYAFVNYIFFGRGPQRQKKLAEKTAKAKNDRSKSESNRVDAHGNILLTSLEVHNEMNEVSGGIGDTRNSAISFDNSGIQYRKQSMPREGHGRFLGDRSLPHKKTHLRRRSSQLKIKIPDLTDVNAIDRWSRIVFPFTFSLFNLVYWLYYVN

[3] = target: T2, GABA A receptor alpha-3/beta-2/gamma-2 (Homo sapiens, UniProt P18507+P34903+P47870); experiment: Modulation of GABAA alpha3beta2gamma2S receptor (unknown origin) expressed in Xenopus laevis oocytes assessed as potentiation of EC3 to 10 GABA-induced chloride ion current at holding potential -70 mV by two-microelectrode voltage clamp assay
T2 sequence (P47870 whole entry): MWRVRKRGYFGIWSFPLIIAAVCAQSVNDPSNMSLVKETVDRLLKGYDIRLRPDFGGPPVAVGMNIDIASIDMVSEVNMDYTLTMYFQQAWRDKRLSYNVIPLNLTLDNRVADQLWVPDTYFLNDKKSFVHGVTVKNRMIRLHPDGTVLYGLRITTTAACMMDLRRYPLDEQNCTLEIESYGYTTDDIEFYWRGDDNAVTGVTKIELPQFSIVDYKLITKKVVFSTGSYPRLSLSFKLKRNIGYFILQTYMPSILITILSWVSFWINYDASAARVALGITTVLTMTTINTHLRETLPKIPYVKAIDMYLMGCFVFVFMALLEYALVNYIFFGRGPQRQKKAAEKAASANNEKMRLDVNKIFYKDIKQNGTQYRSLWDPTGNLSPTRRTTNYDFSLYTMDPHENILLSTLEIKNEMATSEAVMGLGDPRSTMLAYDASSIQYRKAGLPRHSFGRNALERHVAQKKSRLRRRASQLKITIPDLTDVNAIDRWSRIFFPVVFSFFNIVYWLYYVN
T2 sequence (P18507 whole entry): T1 sequence (P18507 whole entry)
T2 sequence (P34903 whole entry): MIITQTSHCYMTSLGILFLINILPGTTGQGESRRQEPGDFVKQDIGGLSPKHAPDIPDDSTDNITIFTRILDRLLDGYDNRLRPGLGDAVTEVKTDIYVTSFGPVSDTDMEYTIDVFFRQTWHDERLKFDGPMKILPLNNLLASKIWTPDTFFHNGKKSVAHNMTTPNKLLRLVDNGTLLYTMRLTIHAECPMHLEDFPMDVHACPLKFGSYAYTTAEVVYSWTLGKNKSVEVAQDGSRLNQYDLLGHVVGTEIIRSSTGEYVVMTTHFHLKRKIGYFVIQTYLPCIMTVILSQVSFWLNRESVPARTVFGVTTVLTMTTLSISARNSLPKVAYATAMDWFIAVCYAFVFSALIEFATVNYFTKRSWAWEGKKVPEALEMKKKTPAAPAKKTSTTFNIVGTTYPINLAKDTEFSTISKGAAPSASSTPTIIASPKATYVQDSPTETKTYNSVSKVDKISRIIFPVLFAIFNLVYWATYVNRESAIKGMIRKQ

Homo sapiens [4] = species: Homo sapiens; experiment: Modulation of GABAA alpha5beta2gamma2S receptor (unknown origin) expressed in Xenopus laevis oocytes assessed as potentiation of EC3 to 10 GABA-induced chloride ion current at holding potential -70 mV at 1 to 300 uM by two-microelectrode voltage clamp assay relative to GABA-treated control
Homo sapiens [5] = species: Homo sapiens; experiment: Modulation of GABAA alpha1beta1gamma2S receptor (unknown origin) expressed in Xenopus laevis oocytes assessed as potentiation of EC3 to 10 GABA-induced chloride ion current at holding potential -70 mV at 1 to 300 uM by two-microelectrode voltage clamp assay relative to GABA-treated control
[6] = Modulation of GABAA alpha1beta1gamma2S receptor (unknown origin) expressed in Xenopus laevis oocytes assessed as potentiation of EC3 to 10 GABA-induced chloride ion current at holding potential -70 mV by two-microelectrode voltage clamp assay; settings: Homo sapiens

COc1cc(O)cc(CCc2cccc(O)c2)c1 [BATATASIN III]
EC50 [1]: 46.7 µM | EC50 [2]: 67.2 µM | EC50 [3]: 67.3 µM | Imax (Homo sapiens [4]): 1380% | Imax (Homo sapiens [5]): 1250% | EC50 [6]: 66.7 µM
